From patent US20230365959A1, “METHOD FOR IMPROVING THE STABILITY OF A COMPOSITION COMPRISING A FLAVIN-DEPENDENT LACTATE DEHYDROGENASE” (KIKKOMAN CORPORATION, priority 2020, published 2023)

How the values were obtained:
Type in all cases: biochemical
[1] = tested on: lactate dehydrogenase from Pichia kudriavzevii (PkLDH); experiment: Thermal stability of PkLDH (residual activity ratio after heat treatment, potassium phosphate buffer); conditions: PkLDH 2 U/mL
Experimental: Thermal stability of LDH can be evaluated by heating LDH at a given temperature for a given time and comparing the activity thereof before and after heating. […] The LDH activity of an LDH solution which is allowed to stand still on ice without heating is taken as 100 and the LDH activity after heating is calculated and, the residual activity ratio (ratio of remaining activity) (%) can be determined.
More specifically, the residual activity ratio (%) can be obtained by measuring LDH activity value (a) of a solution before heat treatment or before long-term storage and LDH activity value (b) of a solution after heat treatment or after long-term storage and calculating ((b)/(a)×100).
Using the purified PkLDH preparation obtained above, the residual activity ratio (%) in the presence and absence of an LDH stabilizer were compared in accordance with the LDH thermal stability evaluation method mentioned previously, and in this manner, a stabilizer was searched.
(§1) The thermal stability of LDH was evaluated by heating LDH at a given temperature for a given time and comparing the activities before and after heating. […] Further, LDH activity of an LDH solution allowed to stand still on ice without any heat treatment was measured. Based on the activity of this case without any heat treatment taken as 100, the activities of LDH solutions after heat treatment were calculated to determine the residual activity ratio (%). More specifically, the residual activity ratio (%) can be obtained by measuring LDH activity value (a) of a solution before heat treatment or before long-term storage, and LDH activity value (b) of a solution after heat treatment or after long-term storage, and then, calculating ((b)/(a)×100).
The degree of LDH stability improving effect of each of the various added compounds was evaluated by preparing an LDH solution by allowing LDH to coexist with each of the various compounds, subjecting the solution to a heat treatment and determining the residual activity ratio (%) of the solution, and evaluating the residual activity (%) by mutually comparing the cases between compounds or comparing the case to a case where no compound was added.
(§2) The activity of LDH was determined in accordance with the following procedure. […] Subsequently, a 30 mM PMS solution (50 μL) and an enzyme sample solution (50 μL) were added to the mixture to initiate a reaction. Absorbance at 520 nm was measured at the time of initiation of the reaction and over time and, the degree of reduction (ΔA520) in absorbance per minute as the enzymatic reaction progresses was obtained and LDH activity was calculated in accordance with the following Mathematical formula 2. Here, LDH activity is expressed by an enzyme (LDH) unit, and 1U is defined as the amount of the enzyme that can reduce 1 μmol DCIP per minute at 37° C. in the presence of 10 mM L-lactate.
The pH of the PkLDH solution was adjusted to be 7.5 after each of the compounds was added. Heat treatment was carried out at 55° C. for 15 minutes. As a comparative example, an LDH solution prepared without adding any compound was subjected to the same experiment. It should be noted that, unless specified otherwise, the reagents used herein were all purchased from Tokyo Chemical Industry Co., Ltd. […]

[2] = target: T1, lactate dehydrogenase from Saccharomyces cereviciae (ScLDH) (Saccharomyces cerevisiae, UniProt P00175); experiment: Thermal stability of ScLDH (supernatant of crushed bacterial cells); conditions: ScLDH 2 U/mL; compound 300 mM; potassium phosphate buffer pH 7.5; 40°C for 15 minutes
T1 construct: made in house; host or cells: Escherichia coli BL21 (pKK223-3-ScLDH); unpurified supernatant of crushed cells
T1 sequence (P00175 86-591): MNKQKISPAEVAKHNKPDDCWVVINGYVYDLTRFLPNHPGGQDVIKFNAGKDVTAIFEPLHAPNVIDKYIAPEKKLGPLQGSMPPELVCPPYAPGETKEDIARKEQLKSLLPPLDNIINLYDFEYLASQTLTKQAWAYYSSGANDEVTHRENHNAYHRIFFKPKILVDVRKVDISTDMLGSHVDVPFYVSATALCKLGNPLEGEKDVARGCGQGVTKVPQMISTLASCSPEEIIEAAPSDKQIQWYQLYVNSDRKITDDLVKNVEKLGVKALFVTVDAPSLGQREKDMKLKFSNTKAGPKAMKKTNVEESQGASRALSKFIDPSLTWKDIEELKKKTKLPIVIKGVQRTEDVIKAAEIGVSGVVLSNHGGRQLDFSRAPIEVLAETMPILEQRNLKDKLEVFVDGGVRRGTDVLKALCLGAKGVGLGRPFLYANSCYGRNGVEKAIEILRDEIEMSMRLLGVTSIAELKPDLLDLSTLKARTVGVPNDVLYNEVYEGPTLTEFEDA
Experimental: as §1, §2
Using the supernatant of a solution comprising crushed ScLDH bacterial cells obtained above, the ratios of remaining activities (%) in the presence and absence of a LDH stabilizer were compared in accordance with the LDH thermal stability evaluation method described in Section 4. In this manner, a stabilizer was searched.
The pH of the LDH solution was adjusted to be 7.5 after each of the compounds was added. Heat treatment was carried out at 40° C. for 15 minutes.

[3] = tested on: lactate dehydrogenase from Candida inconspicua (CaLDH); experiment: Thermal stability of CaLDH (residual activity ratio after heat treatment); conditions: CaLDH 2 U/mL, potassium phosphate buffer pH 7.5, 50°C for 15 minutes; for improvement effect on the stability of LDH: compound 300 mM
Experimental: as §1, §2
Stability evaluation tests were conducted to check the improvement effect of malic acid on the stability of various LDHs. […] Each of these diluted enzyme solutions (a mixture of an enzyme and L-malic acid, LDH concentration: 2 U/mL, L-malic acid concentration: 300 mM) was heated in accordance with the thermal-stability evaluation method described in Section 4. More specifically, PkLDH was treated at 55° C., whereas, CaLDH and OgLDH were treated at 50° C. for 15 minutes and then the residual activity ratio (%) was calculated, based on the activity before heating taken as 100. […]

[4] = tested on: lactate dehydrogenase from Ogataea parapolymorpha (OgLDH); experiment: Thermal stability of OgLDH (residual activity ratio after heat treatment); conditions: OgLDH 2 U/mL, potassium phosphate buffer pH 7.5, 50°C for 15 minutes; for LDH stability improving effect: compound 300 mM
Experimental: as §1, §2
Stability evaluation tests were conducted to check the improvement effect of malic acid on the stability of various LDHs. […] Each of these diluted enzyme solutions (a mixture of an enzyme and L-malic acid, LDH concentration: 2 U/mL, L-malic acid concentration: 300 mM) was heated in accordance with the thermal-stability evaluation method described in Section 4. More specifically, PkLDH was treated at 55° C., whereas, CaLDH and OgLDH were treated at 50° C. for 15 minutes and then the residual activity ratio (%) was calculated, based on the activity before heating taken as 100. As a comparative example, a sample without adding any L-malic acid in the enzyme diluent was subjected to the same experiment, and the ratio of residual activity in both cases were compared.
Using the purified OgLDH preparation obtained above, the ratios of remaining activities (%) in the presence and absence of a LDH stabilizer were compared in accordance with the LDH thermal stability evaluation method described in Section 4. In this manner, a stabilizer was searched.
The pH of the LDH solution was adjusted to be 7.5 after each of the compounds was added. Heat treatment was carried out at 50° C. for 15 minutes.

[5] = tested on: lactate dehydrogenase from Pichia kudriavzevii (PkLDH); experiment: Thermal stability of PkLDH in 150 mM HEPES buffer; conditions: PkLDH 2 U/mL; 150 mM HEPES buffer pH 7.5; added compound 300 mM; 55°C for 15 minutes
Experimental: as §1
as §2, with “Here, LDH activity is expressed by an enzyme (LDH) unit, and 1U is defined as the amount of the enzyme that can reduce 1 μmol DCIP per minute at 37° C. in the presence of 10 mM L-lactate.” left out

[6] = tested on: lactate dehydrogenase from Pichia kudriavzevii (PkLDH); experiment: Chronoamperometry with printed electrode to which PkLDH plus stabilizer was applied and dried (5 mM mPMS/PBS); conditions: added compound 50 mM, +200 mV
Experimental: An enzyme electrode was prepared using the purified PkLDH preparation obtained above and chronoamperometry was carried out. Each of the compounds was added to an enzyme solution in advance and tested whether or not a stabilizing effect of the enzyme during a drying step was exerted. LDH (1 U) solutions comprising compounds in a concentration (0.2% (w/v), 2% (w/v) and 50 mM, respectively) as described in Table 8 were each applied to a screen-printed carbon electrode C110 (manufactured by Metrohm-Dropsens) in an amount of 4 μL and dried at 40° C. for 60 minutes. The same procedure was repeated using an LDH solution without adding any one of the compounds. Each of the electrodes prepared was connected to ALS electrochemical analyzer 814D (manufactured by BAS) using a dedicated connector (DRP-CAC, manufactured by Drop Sense). Subsequently, 100 μL of a 2 mM mPMS/PBS solution was added dropwise to dissolve the dried LDH. The applied voltage was +200 mV (vs Ag/Ag+). An L-sodium lactate solution was added and a response current value 5 seconds after initiation of measurement was recorded. […] Further, in the same manner as above, a 1 U LDH solution comprising 1% polyacrylic acid was applied to a screen printed carbon electrode and dried and then a 2 mM mPMS/PBS solution (100 μL) was added dropwise to dissolve the dried LDH. Then, an L-sodium lactate solution was added such that the final concentration thereof would be 2 to 10 mM, and a response current value 5 seconds after initiation of measurement was recorded.
Chronoamperometry was carried out by changing the concentration of the compound to be added as a stabilizer and the concentration of L-sodium lactate used as a substrate. To an electrode prepared in the same manner as in the preceding Section, 100 μL of a 5 mM mPMS/PBS solution was added dropwise to dissolve the dried LDH. A voltage of +200 mV (vs Ag/Ag+) was applied. An L-sodium lactate solution was added and a response current value 5 seconds after initiation of measurement was recorded.

[7] = added compound 300 mM, 150 mM potassium phosphate buffer pH 7.5, 0.15% BSA, 55°C for 15 minutes

O=C([O-])CC(O)(CC(=O)[O-])C(=O)[O-].[Na+].[Na+].[Na+] [Sodium citrate, sodium citrate]
Residual activity ratio (%) [1, 7]: 42%

N.N.O=S(=O)(O)O [Ammonium sulfate, ammonium sulfate]
Residual activity ratio (%) [1, 7]: 54% | stability improving effect on ScLDH [2]: 24%

O=C(O)/C=C/C(=O)O [Fumaric acid, fumaric acid]
Residual activity ratio (%) [1, 7]: 41%

O=C(O)C[C@H](O)C(=O)O [L-malic acid]
Residual activity ratio (%) CaLDH ([3]; added compound 300 mM): 45% | Residual activity ratio (%) OgLDH ([4]; added compound 300 mM): 88% | Residual activity ratio (%) [5]: 100% | Residual activity ratio (%) [1, 7]: 80% | Residual activity ratio (%) ([1]; final concentration of malic acid 10 mM, 55°C for 15 min): 36% | Residual activity ratio (%) ([1]; final concentration of malic acid 30 mM, 55°C for 15 min): 44% | Residual activity ratio (%) ([1]; final concentration of malic acid 100 mM, 55°C for 15 min): 52% | Residual activity ratio (%) ([1]; final concentration of malic acid 500 mM, 55°C for 15 min): 90% | stability improving effect on ScLDH [2]: 41%

OC[C@H]1O[C@H](O[C@H]2[C@H](O)[C@@H](O)C(O)O[C@@H]2CO)[C@H](O)[C@@H](O)[C@@H]1O (mixture of isomers) [maltose monohydrate]
improvement effect on the stability of LDH [3]: 5%

O[C@H]1[C@H](O)[C@@H](O)[C@H](O)[C@@H](O)[C@H]1O [myo-inositol]
Current value 5 second later (μA), 0 mM lactate [6]: 0.23 μA | Current value 5 second later (μA), 5 mM lactate [6]: 104.4 μA

O=C(O)CC(=O)C(=O)O [Oxaloacetic acid, oxaloacetic acid]
Residual activity ratio (%) [1, 7]: 45%

N[C@@H](Cc1c[nH]cn1)C(=O)O [L-histidine]
LDH stability improving effect [4]: 27%

O=C(O)CCC(=O)O [Succinic acid, succinic acid]
Residual activity ratio (%) [1, 7]: 54%

O=C(O)C[C@@H](O)C(=O)O [D-malic acid]
Residual activity ratio (%) [1, 7]: 47%

O=C(O)CN(CCN(CC(=O)O)CC(=O)O)CC(=O)O [ethylenediaminetetraacetic acid]
improvement effect on the stability of LDH [3]: 56%

OC[C@H]1O[C@H](O[C@H]2O[C@H](CO)[C@@H](O)[C@H](O)[C@H]2O)[C@H](O)[C@@H](O)[C@@H]1O [Trehalose dihydrate, trehalose dihydrate]
Residual activity ratio (%) [1, 7]: 41%

O=C(O)C(O)Cc1ccccc1 (racemic) [DL-phenyllactic acid, DL-3-phenyllactic acid]
Residual activity ratio (%) [1, 7]: 87%

Cl.NCCCC[C@H](N)C(=O)O [L-lysine hydrochloride]
LDH stability improving effect [4]: 66%

OC[C@H]1O[C@@](CO)(O[C@H]2O[C@H](CO)[C@@H](O)[C@H](O)[C@H]2O)[C@@H](O)[C@@H]1O [Sucrose, sucrose]
Residual activity ratio (%) [1, 7]: 42%

NCC(=O)O [glycine]
LDH stability improving effect [4]: 11%

O=C(O)/C=C\C(=O)O [Maleic acid, maleic acid]
Residual activity ratio (%) [1, 7]: 45%

O=C([O-])[C@H](O)[C@@H](O)[C@H](O)[C@H](O)CO.[Na+] [Sodium gluconate, sodium gluconate]
Residual activity ratio (%) [1, 7]: 57%

N[C@@H](CC(=O)O)C(=O)[O-].[Na+] [Sodium aspartate, L-sodium aspartate]
Residual activity ratio (%) [1, 7]: 64%

O=C([O-])CC(O)C(=O)[O-].[Na+].[Na+] [L-sodium malate]
Current value 5 second later (μA), 0 mM lactate [6]: 0.43 μA | Current value 5 second later (μA), 5 mM lactate [6]: 94.4 μA

DL-leucine acid
Residual activity ratio (%) [1, 7]: 92%

O=S(=O)([O-])[O-].[Na+].[Na+] [Sodium sulfate, sodium sulfate]
Residual activity ratio (%) [1, 7]: 50%
